System: A549 human adenocarcinoma tumor cells
Assay: Microtubule bundling patterns in tumor cells by immunofluorescence
Format: cell-based
Set-up: key to Microtubule bundling in A549 cells: −: no effect; +/−: minimal or questionable effect; +: weak effect; ++: strong effect; +++: very strong effect equivalent to discodermolide
Conditions: for Microtubule bundling in A549 cells: subjective rating versus discodermolide
Experimental: Discodermolide and discodermolide analogs were evaluated as to their effects on the morphology of the microtubule network of cells using mouse anti-alpha-tubulin monoclonal antibody.
On day one, 7×10^4 adherent A549 human adenocarcinoma tumor cells were cultured in TCM overnight at 37° C. in 5% CO2 on 22 mm^2 cover slips in 6-well microtiter plates. On day two, TCM was removed and replaced with 10-1000 nM discodermolide or analog in TCM or TCM without drug (control) and incubated overnight at 37° C. in 5% CO2. On day three, TCM was removed and cells attached to cover slips were fixed with a 3.7% formaldehyde solution in Dulbecco's PBS for 10 minutes at room temperature. Cells were permeabilized with a 2% Triton X-100 solution, 2 mL per well, for 5 minutes at room temperature and washed twice in Dulbecco's PBS prior to staining.
To each well containing cells attached to cover slips a 2 mL volume of mouse anti- alpha-tubulin monoclonal antibody (Cat# T-5168, Sigma Chemical Co., St. Louis, Mo.) diluted 1:1000 in Dulbecco's phosphate buffered saline (D-PBS) was added and the cells incubated at room temperature for 45 minutes. Cover slips were rinsed once with D-PBS. A 2 mL volume of goat-anti-mouse-IgG-FITC conjugated antibody (Cat# T-5262, Sigma Chemical Co., St. Louis, Mo.) diluted 1:1000 in D-PBS was added and the cells incubated at room temperature for 45 minutes. Cover slips were rinsed once in D-PBS and DNA was stained with 0.02 mg/mL propidium iodide together with 0.1 mg/mL of ribonuclease A (RNAse) A in D-PBS at 37° C. for 30 minutes. Cover slips were rinsed three times with sterile distilled water, air-dried and mounted on slides with SlowFade™ antifade solution (Molecular Probes, Eugene, Oreg.) and observed under the microscope using epifluorescence illumination for the presence of abnormal aster and microtubule bundle formations.

CCCCC(C)C(OC(N)=O)C(C)C(O)C(C)CC(C)=CC(C)C(O)C(C)CCC(O)CC1OC(=O)C(C)C(O)C1C (stereo not drawn) [8,21,23-Hexahydrodiscodermolide (XII), 8,21,23-hexahydrodiscodermolide] was tested, and the Microtubule bundling observation (100 nM) was “Microtubule bundling was evident”, the Microtubule bundling observation (1000 nM) was “Microtubule bundling was evident” and the “Microtubule bundling in A549 cells” value (Table 12) was “++”.
C=CC=CC(C)C(OC(N)=O)C(C)C(O)C(C)CC(C)=CC(C)C(O)C(C)C=CC(O)CC1OC(=O)CC(O)C1C (stereo not drawn) [2-Desmethyldiscodermolide (II), 2-desmethyldiscodermolide] was tested, and the Microtubule bundling observation (100 nM) was “Some thin or short peripheral microtubule bundling”, the Microtubule bundling observation (1000 nM) was “extensive microtubule bundling” and the “Discodermolide concentration giving equivalent morphological changes” value (analog at 100 nM) was 20-50 nM. The “Discodermolide concentration giving equivalent morphological changes” value (analog at 1000 nM) was 1000 nM and the “Microtubule bundling in A549 cells” value (Table 11) was “+++”.
For C=C/C=C\[C@H](C)[C@H](OC(N)=O)[C@@H](C)[C@H](O)[C@@H](C)C/C(C)=C\[C@H](C)[C@@H](O)[C@@H](C)/C=C\[C@@H](O)C[C@@H]1OC(=O)[C@@H](C)[C@@H](O)[C@H]1C [2-Epidiscodermolide (IV), 2-epidiscodermolide], the “Cells with multiple aster formations, share of the population undergoing mitosis” value (100 nM) was “less than 10%”, the Microtubule bundling observation (100 nM) was “no microtubule matrix bundling” and the Microtubule bundling observation (1000 nM) was “Some minor, peripheral, polymerization of microtubule matrix”. The “Discodermolide concentration giving equivalent morphological changes” value (analog at 1000 nM) was about 20 nM and the “Microtubule bundling in A549 cells” value (Table 11) was “+”.
For C=CC=CC(C)C(O)C(C)C(O)C(C)CC(C)=CC(C)C(O)C(C)C=CC(O)CC1OC(=O)C(C)C(O)C1C (stereo not drawn) [19-Desaminocarbonyldiscodermolide (III), 19-desaminocarbonyldiscodermolide], the Microtubule bundling observation (100 nM) was “some microtubule bundling”, the Microtubule bundling observation (1000 nM) was “moderate amount of microtubule bundling” and the “Discodermolide concentration giving equivalent morphological changes” value (analog at 100 nM) was 10-20 nM. The “Discodermolide concentration giving equivalent morphological changes” value (analog at 1000 nM) was 50-100 nM and the “Microtubule bundling in A549 cells” value (Table 11) was “++”.
In the case of CCCCC(C)C(OC(N)=O)C(C)C(O)C(C)CC(C)=CC(C)C(O)C(C)CCCCC1OC(=O)C(C)C(O)C1C (stereo not drawn) [7-deoxy-8,21,23-hexahydrodiscodermolide], the Microtubule bundling observation (10 nM) is reported as “no visible effect on the microtubule matrix”, the Microtubule bundling observation (100 nM) is reported as “small amount of microtubule bundling visible in some cells” and the Microtubule bundling observation (1000 nM) is reported as “strong microtubule bundling”. For the same compound, the “Discodermolide concentration giving equivalent morphological changes” value (analog at 100 nM) was about 10 nM, the “Discodermolide concentration giving equivalent morphological changes” value (analog at 1000 nM) was 100 nM and the “Microtubule bundling in A549 cells” value (Table 12) was “++”.
